Earlier results as cited in article PMC9366781 (ACS Omega, 2022).
Read-outs that look alike come from different tables or passages of the source.

System: EGFR

## hEGF: endogenous EGFR ligand human epidermal growth factor, internal reference standard
Same study as GE11 monomer
  affinity to the EGFR: 5.1 ± 0.9 nM

## Tyr-His-Trp-Tyr-Gly-Tyr-Thr-Pro-Gln-Asn-Val-Ile [GE11]
Different EGFR-positive cell lines (among these A431, MDA-MB-468, U87MG)
  affinity to the EGFR: more than 1 mM
